Columns and labels:
Assay type in all cases: cell-based, Saccharomyces cerevisiae
hem1Δ yeasts [1] = test: Restoration of growth of lipo-intoxicated hem1Δ yeasts (drop test on agar); conditions: SFA accumulation conditions; 5 μl drops on agar; after three days
Experimental: FIG. 3B—The hem1Δ yeasts were cultivated in conditions of SFA accumulation as indicated. 5 μl drops of OAG, LPA and oleic acid in the concentrations indicated were then deposited on the surface of the agar medium. The restoration of growth of the hem1Δ yeasts is observed in the formation of colonies after three days.
The strain carrying the hem1Δ strain is cultivated, under aerobic conditions, under stirring and at 28° C., in a YPG^A liquid medium (YPG (yeast extract 1% (m/v), peptone 1% (m/v) and glucose 2% (m/v)) supplemented with δ-aminolevulinic acid (ALA) at 80 μg/mL). Lipotoxicity by saturated fatty acids (SFA) is prompted by depletion of unsaturated fatty acids (UFA)—the synthesis of which is dependent on the presence of haem (prosthetic grouping of the enzyme Ole1p especially)—by transfer into YPG^+ medium (YPG supplemented with ergosterol at 80 μg/mL to compensate for the depletion in sterol obtained under these conditions). The lipotoxicity can be induced in a solid medium YPG^++agar 2% (m/v) in transferring 3500 cells (hem1Δ coming from a pre-culture in YPG^A)/cm^2 or *alternatively in a liquid medium in inoculating 2·10^6 cells/mL of YPG^+. Classically, the effects of lipotoxicity on SFA are analyzed 7 h after the transfer into YPG^+ medium. The capacity of a compound to counter the deleterious effects of lipotoxicity with SFA is for its part evaluated successively with the addition of this compound on (or in) the YPG^+ transfer medium after seeding with cells.
1) Screening of compounds: Following the induction of lipotoxicity with SFA (for hem1Δ cultivated in a solid medium), 5 μL drops of solutions of different compounds at 10 mM in dimethylsulfoxide (DMSO) or in ethanol (EtOH) are deposited on the surface of agar. The capacity of a compound to counter the lipo-induced stoppage of cell growth is estimated by the appearance of a halo of hem1Δ colonies at the position of the deposit of said compound after three days of culture at 28° C. (cf. Deguil et al., 2011).

QM strain = test: Toxicity test on QM strain (growth inhibition haloes); conditions: after three days
Experimental: 5 μl drops of OAG, LPA or oleic acid were deposited, from stock solutions in the concentrations indicated, on the surface of an agar medium on which the QM strain had been preliminarily spread. […] These haloes are on the contrary not observed in the presence of LPA and OAG.
At the same time, wild strains (WT) and QM are cultivated in aerobic conditions under stirring and at 28° C., in a YPG liquid medium before seeding 3500 cells per cm^2 of YPG+agar 2% (m/v). Following this transfer to solid medium, 1 μL drops of solutions of different compounds at 1, 10 and 100 mM in DMSO or EtOH are deposited on the surface of the agar. Separately, deposits of DMSO and EtOH are also made in order to assess the intrinsic toxicity of these two solvents. After three days of culture of 28° C., the toxicity of the tested compounds is evaluated by comparing the diameters of the growth inhibition haloes obtained for the deposits of undissolved solvents with those of the deposits of different concentrations of compounds tested.

hem1Δ yeasts [2] = test: Phospholipid fatty acid content by mass spectrometry in lipo-intoxicated hem1Δ yeasts
Experimental: The hem1Δ yeasts were cultivated in standard conditions (control) or in conditions of SFA accumulation without (Ø) or with the addition of 100 μM of oleic acid, LPA or OAG as indicated.
FIG. 6A—After 7 h of incubation, the phospholipids (PL) were extracted and the different species of phosphatidylcholine (PC), which constitute the predominantly present PL were analyzed by mass spectrometry in positive mode, according to Pineau et al. (2008).
FIG. 6B—All the species of PL detectable in these conditions of mass spectrometry were analyzed to globally quantify the content in SFA forms.
The hem1Δ strain is cultivated in a YPG^A, YPG^+ or YPG^+ liquid medium+200 μM of compound to be tested in aerobic conditions, under stirring and at 28° C. for 7 h, starting from an initial cell concentration of 2·10^6 cells/mL. At the end of the culture, 10^8 cells are collected in order to carry out the extraction of the total lipids. After the cells have been put in suspension in 1 mL of distilled water at 4° C., 500 μL of glass beads (Ø 0.6 mm) are added and the whole mixture then undergoes three sequences of 20 seconds at 5000 rpm in a stirrer (the tubes are kept on ice between each of the three sequences). The cellular lysate then obtained, complemented with water for rinsing the beads (1 mL), is then transferred into a 40 mL glass tube (Corex™) and then the lipids are extracted by using a methanol:chloroform ratio of 2:1 (v/v). Initially, 6 mL of methanol are added and the entire mixture is vortexed for 30 seconds and then incubated for 15 minutes at 65° C. Once the mixture has been cooled to ambient temperature, […] of chloroform is added and then the entire mixture is again vortexed for 30 seconds before allowing the extraction to take place for 16 h. Subsequently, the sample is centrifuged for 12 minutes at 10000 g and then the supernatant is transferred into a new Corex™ tube. After the addition of 2 mL of chloroform and then 4 mL of distilled water, the entire mixture is vortexed for 30 seconds and then centrifuged for 8 minutes at 3000 g. After elimination of the resultant upper phase, the lower organic phase is collected in a hemolysis tube made of glass. Finally, the solvent is evaporated under a nitrogen stream at 80° C. to obtain total cell lipid samples.
The samples of total cell lipids are put back into suspension in 1 mL of dichloromethane in being vortexed for 30 seconds. The entire mixture is deposited on a silica column (BOND ELUT-SI, 100 mg 1 mL) preconditioned with 3 mL of methanol and then 2 mL of dichloromethane successively. The fraction retained by the column is then washed with 2 mL of dichloromethane and then 2 mL of acetone successively. Finally, 2 mL of a mixture of chloroform/methanol/water 50:45:5 (v/v/v) are deposited on the column and the phospholipids thus eluted are collected in a glass hemolysis tube. The solvent is evaporated under nitrogen at 80° C. to obtain the samples of cellular phospholipids.
Once put back into suspension in 100 μL of mixture Mix^− (isopropanol/acetonitrile/water 2:1:1 (v/v/v)+triethylamine 1% (v/v)) or mixture Mix^+ (isopropanol/acetonitrile/water 2:1:1 (v/v/v)+formic acid 1% (v/v)), the samples are analyzed by mass spectrometry (Electro Spray Ionization-Mass Spectrometry (ESI-MS)) in negative or positive mode respectively and the results obtained serve to analyze the fatty acid content of the different species of phospholipids.

CCCCCCCC/C=C\CCCCCCCC(=O)O [oleic acid, reference compound]
restoration of growth of lipo-intoxicated hem1Δ yeasts (formation of colonies) (hem1Δ yeasts [1]): restore the growth
toxicity for cells that do not synthesize triglycerides (QM strain; QM strain on agar medium): toxicity
haloes of growth inhibition (absence of colonies) (QM strain; QM strain, 5 μl drops on agar): haloes of growth inhibition (absence of colonies) can be observed
plasticity of membranes previously lipo-intoxicated by SFAs (hem1Δ yeasts [2]; hem1Δ yeast model): restores the plasticity of the membranes
production of di-unsaturated phospholipids (level of PC species 36:2) (hem1Δ yeasts [2]; hem1Δ, SFA accumulation, 100 μM compound, 7 h): increase of the level of this species

Reference: patent US9821000B2, “Compounds, compositions and corresponding uses for preventing and/or treating of dyslipidemia” (CENTRE NATIONAL DE LA RECHERCHE SCIENTIFIQUE (CNRS), priority 2013, dated 2017)
